Converted amounts (≈) assume the structure as drawn.
Columns and labels:
MCF7 [1] = experiment: Cytotoxicity against human MCF7 cells; assay type: functional, cell-based
HCT-116 [2] = experiment: Cytotoxicity against human HCT-116 cells assessed a reduction in cell viability; assay type: functional, cell-based
[3] = Cytotoxicity against human H357 cells; assay type: functional, cell-based
MDA-MB-231 [4] = experiment: Cytotoxicity against human MDA-MB-231 cells; assay type: functional, cell-based
HeLa [5] = experiment: Cytotoxicity against human HeLa cells assessed as reduction in cell viability; assay type: functional, cell-based
MCF7 [6] = experiment: Cytotoxicity against human MCF7 cells assessed as reduction in cell viability; assay type: functional, cell-based
FaDu = experiment: Anticancer activity against human FaDu cells; assay type: functional, cell-based
HeLa [7] = experiment: Anticancer activity against human HeLa cells measured after 48 hrs by Sulforhodamine B assay; assay type: functional, cell-based
HepG2 [8] = experiment: Anticancer activity against human HepG2 cells measured after 48 hrs by Sulforhodamine B assay; assay type: functional, cell-based; conditions: HepG2, 48 h
T47D = experiment: Anticancer activity against human T47D cells measured after 48 hrs by Sulforhodamine B assay; assay type: functional, cell-based
MCF7 [9] = experiment: Anticancer activity against human MCF7 cells measured after 48 hrs by Sulforhodamine B assay; assay type: functional, cell-based; conditions: MCF7, 48 h
HCT-116 [10] = experiment: Anticancer activity against human HCT-116 cells measured after 48 hrs by Sulforhodamine B assay; assay type: functional, cell-based; conditions: HCT-116, 48 h
[11] = Cytotoxicity against HEK293T cells incubated for 72 hrs by MTT assay; assay type: toxicity, cell-based, HEK-293T; conditions: human
MCF7 [12] = experiment: Cytotoxicity against human MCF7 cells incubated for 72 hrs by MTT assay; assay type: functional, cell-based; conditions: MCF7, 72 h
A549 [13] = experiment: Cytotoxicity against human A549 cells incubated for 72 hrs by MTT assay; assay type: functional, cell-based; conditions: A549, 72 h
[14] = Cytotoxicity against human VA13 cells incubated for 72 hrs by MTT assay; assay type: toxicity, cell-based; conditions: VA13 (WI-38 VA13) cells
MCF7 [15] = experiment: Anticancer activity against human MCF7 cells measured after 72 hrs by SRB assay; assay type: functional, cell-based; conditions: MCF7, 72 h
HCT-116 [16] = experiment: Anticancer activity against human HCT-116 cells measured after 72 hrs by SRB assay; assay type: functional, cell-based; conditions: HCT-116, 72 h
Mahlavu = experiment: Anticancer activity against human Mahlavu cells measured after 72 hrs by SRB assay; assay type: functional, cell-based
Huh-7 = experiment: Anticancer activity against human Huh-7 cells measured after 72 hrs by SRB assay; assay type: functional, cell-based; conditions: Huh-7, 72 h
MCF7 [17] = experiment: Anticancer activity against human MCF7 cells assessed as inhibition of cell proliferation; assay type: functional, cell-based
KB = experiment: Anticancer activity against human KB cells assessed as inhibition of cell proliferation; assay type: functional, cell-based
[18] = system: Panel NCI-60 (60 carcinoma cell lines); experiment: Growth inhibition of human Panel NCI-60 (60 carcinoma cell lines) cells; assay type: functional
HeLa [19] = experiment: Anticancer activity against human HeLa cells assessed as inhibition of cell viability; assay type: functional, cell-based
[20] = Anticancer activity against […] 3T3 cells; assay type: functional, cell-based; conditions: NIH3T3
MDA-MB-231 [21] = experiment: Antiproliferative activity against human MDA-MB-231 cells by MTT assay; assay type: functional, cell-based
K562 = experiment: Anticancer activity against human K562 cells; assay type: functional, cell-based
A549 [22] = experiment: Anticancer activity against human A549 cells; assay type: functional, cell-based
PC-3 [23] = experiment: Anticancer activity against human PC-3 cells; assay type: functional, cell-based
HepG2 [24] = experiment: Cytotoxicity against human HepG2 cells incubated overnight by MTT assay; assay type: functional, cell-based
MCF7 [25] = experiment: Cytotoxicity against human MCF7 cells incubated overnight by MTT assay; assay type: functional, cell-based
HCT-116 [26] = experiment: Cytotoxicity against human HCT-116 cells incubated overnight by MTT assay; assay type: functional, cell-based
MCF7 [27] = experiment: Cytotoxicity against human MCF7 cells by MTT assay; assay type: functional, cell-based
MDA-MB-231 [28] = experiment: Cytotoxicity against human MDA-MB-231 cells by MTT assay; assay type: functional, cell-based
A549 [29] = experiment: Cytotoxicity against human A549 cells by MTT assay; assay type: functional, cell-based
HBL = experiment: Cytotoxicity against human HBL cells by MTT assay; assay type: functional, cell-based
Erythrocyte = experiment: Cytotoxicity against human Erythrocyte by MTT assay; assay type: functional, cell-based
MCF7 [30] = experiment: Cytotoxicity against human MCF7 cells assessed as reduction in cell growth; assay type: functional, cell-based
WI-38 = experiment: Cytotoxicity against human WI-38 cells assessed as reduction in cell growth; assay type: functional, cell-based
MCF7 [31] = experiment: Cytotoxicity against human MCF7 cells assessed as lethal dose; assay type: functional; conditions: read-out: LD50 (the source's name)
HCT-116 [32] = experiment: Anticancer activity against human HCT-116 cells; assay type: functional, cell-based
HepG2 [33] = experiment: Anticancer activity against human HepG2 cells assessed as inhibition of cell growth; assay type: functional, cell-based
MCF7 [34] = experiment: Anticancer activity against human MCF7 cells assessed as inhibition of cell growth; assay type: functional, cell-based
MCF7 [35] = experiment: Antiproliferative activity against human MCF7 cells by MTT assay; assay type: functional, cell-based
MDA-MB-231 [36] = experiment: Antiproliferative activity against human MDA-MB-231 cells assessed as inhibition of cell viability by MTT assay; assay type: functional, cell-based
PC-3 [37] = experiment: Antiproliferative activity against human PC-3 cells assessed as inhibition of cell viability by MTT assay; assay type: functional, cell-based
DU-145 = experiment: Antiproliferative activity against human DU-145 cells assessed as inhibition of cell viability by MTT assay; assay type: functional, cell-based

CCOc1cccc2c1OCC1=CCC3(O[C@H]12)C(=O)c1ccccc1C3=O
IC50 (MCF7 [1]): 20 µM
IC50 (HCT-116 [2]): 27.5 µM
IC50 [3]: 55 µM
IC50 (MDA-MB-231 [4]): 15 µM

Cc1ccc2[nH]c3c(c2c1)CC1(C3=O)C(c2ccc(F)cc2)C2CSCN2C12C(=O)Nc1ccccc12 (configuration not stated)
IC50 (HeLa [5]): 79 µM
IC50 (MCF7 [6]): 19.4 µM

O=C1/C(=C/c2ccccc2)CN(/C=C/c2ccccc2)C[C@@]12[C@H](c1ccccc1)[C@@H](Cc1ccccc1)N[C@]21C(=O)Nc2ccccc21
IC50 (FaDu): 19 µM

CN1C/C(=C\c2ccc(F)cc2)C(=O)[C@@]2(C1)[C@H](c1ccc(F)cc1)CN(C)[C@]21C(=O)Nc2ccc(Cl)cc21
IC50 (HeLa [7]): 2750 nM
IC50 (HepG2 [8]): 3.08 µM
IC50 (T47D): 3.1 µM
IC50 (MCF7 [9]): 2.98 µM
IC50 (HCT-116 [10]): 2740 nM

Cc1ccccc1/C=C1\CN(/C=C/c2ccccc2)C[C@]2(C1=O)[C@H](c1ccccc1C)[C@@H](Cc1ccccc1)N[C@]21C(=O)Nc2ccccc21
IC50 (FaDu): 21 µM

CN1C[C@H](c2ccc(Cl)cc2)[C@]2(NC(=O)NC2=O)C12C(=O)Nc1ccc(Br)cc12 (some centres not stated)
IC50 at 72 h [11]: 9.2 µM
IC50 (MCF7 [12]): 24.1 µM
IC50 (A549 [13]): 6.6 µM
IC50 at 72 h [14]: 11.9 µM

CCNC(=O)[C@H]1[C@H](c2ccc([N+](=O)[O-])cc2)[C@@]2(C(=O)Cc3ccccc32)[C@H](CC(C)C)N1[C@H](c1ccccc1)[C@@H](O)c1ccccc1
IC50 (MCF7 [15]): 4.8 µM
IC50 (HCT-116 [16]): 3.9 µM
IC50 (Mahlavu): 14.9 µM
IC50 (Huh-7): 8.2 µM

COc1ccc2c(c1)[C@]1(C(=O)N2)N(C)C[C@@H](c2ccc(F)cc2)[C@@]12CN(C)C/C(=C\c1ccc(F)cc1)C2=O
IC50 (HeLa [7]): 2880 nM
IC50 (HepG2 [8]): 3.08 µM
IC50 (T47D): 2.98 µM
IC50 (MCF7 [9]): 3.1 µM
IC50 (HCT-116 [10]): 2860 nM

O=C1NC(=O)C2(Cc3ccccc3N3CCSCC32)C(=O)N1 (configuration not stated)
IC50 (MCF7 [17]): 90.2 µM
IC50 (KB): 49.8 µM

C1=CC2=CC3CCCC4=Cc5ccccc5OC43OC2C=C1 (configuration not stated)
GI50 [18]: < 10 µM

O=C(c1ccc(F)cc1)C1C(c2ccc(Cl)cc2Cl)C2CSCN2C12C(=O)Nc1ccccc12 (configuration not stated)
IC50 (HeLa [19]): 11.2 µM
IC50 [20]: 21.2 µM

N#CC1=C(c2ccccc2)Nc2c(c(-c3cccs3)nn2-c2ccccc2)C12C(=O)Nc1ccccc12 (configuration not stated)
IC50 (MDA-MB-231 [21]): 6.7 µM

CCN(CC)C[C@@]1([C@H]2c3ccccc3[C@@H](O)[C@]23C(=O)N(Cc2ccccc2)c2ccccc23)C(=O)N(Cc2ccccc2)c2ccccc21
IC50 (K562): 7.4 µM
IC50 (A549 [22]): 18.1 µM
IC50 (PC-3 [23]): 17.7 µM

O=C(/C=C/c1ccc(Br)cc1)[C@H]1[C@H](c2ccc(Br)cc2)C2CSCN2[C@]12C(=O)Nc1cc(Br)c(Br)cc12 (some centres not stated)
IC50 (HepG2 [24]): 50 µM
IC50 (MCF7 [25]): 2500 nM
IC50 (HCT-116 [26]): 2200 nM

CN1C[C@H](c2ccc(F)cc2)[C@]2(NC(=O)NC2=O)C12C(=O)Nc1ccccc12 (some centres not stated)
IC50 at 72 h [11]: 14.3 µM
IC50 (MCF7 [12]): 18.3 µM
IC50 (A549 [13]): 7.5 µM
IC50 at 72 h [14]: 20.8 µM

Cc1ccc2c(c1)C1(CC(=O)C=NO1)C(=O)N2 (configuration not stated)
IC50 (MCF7 [27]): > 30 µM
IC50 (MDA-MB-231 [28]): 340 nM
IC50 (A549 [29]): 13.2 µM
IC50 (HBL): > 100 µM
IC50 (Erythrocyte): > 100 µM

CN1N=C(c2ccc(Cl)c(Cl)c2)C2C(CSC23CCCN3CCOCC(=O)NN)C1=O (configuration not stated)
IC50 (MCF7 [30]): 7.72 µM
IC50 (WI-38): 10.4 µM

COC1=C(Br)[C@@H](O)[C@]2(C=C1Br)CC(C(=O)NCC(O)c1cc(Br)c(OCCCNC(=O)C3=NO[C@]4(C=C(Br)C(OC)=C(Br)[C@@H]4O)C3)c(Br)c1)=NO2 (some centres not stated)
CC50 (MCF7 [31]): 17 µg/mL (≈ 15.5 µM)

Cc1ccc2[nH]c3c(c2c1)CC1(C3=O)C(c2cccc3ccccc23)C2CSCN2C12C(=O)Nc1ccccc12 (configuration not stated)
IC50 (HeLa [5]): 24.4 µM
IC50 (MCF7 [6]): 32.6 µM

O=C1Nc2ccccc2C12CC(c1cn(S(=O)(=O)c3ccc(Cl)cc3)c3ccccc13)=NN2 (configuration not stated)
IC50 (HCT-116 [32]): 20.5 µg/mL (≈ 43 µM)
IC50 (HepG2 [33]): 19.2 µg/mL (≈ 40.3 µM)
IC50 (MCF7 [34]): 5.8 µg/mL (≈ 12.2 µM)

COC1=CC2OC34Oc5cc(OC)ccc5C=C3CCCC4C=C2C=C1 (configuration not stated)
GI50 [18]: < 19 µM

Clc1ccc(C2=NO[C@@]3(CCCCO3)[C@H]2Br)cc1
IC50 (MCF7 [35]): 51.2 µM
IC50 (MDA-MB-231 [36]): 53.1 µM
IC50 (PC-3 [37]): 56.7 µM
IC50 (DU-145): 48.1 µM

CN1C(=O)C2(SCC3C(=O)N(CC(=O)NN)N=C(c4ccc(Cl)c(Cl)c4)C32)c2ccccc21 (configuration not stated)
IC50 (MCF7 [30]): 8.16 µM
IC50 (WI-38): 11.2 µM
